Activity calls are given as the source filed them.
Columns and labels:
[1] = test system: Escherichia coli; test: microbe, parasite or virus in culture
[2] = Luminescence Cell-Based Dose Response HTS to Identify Activators of Luciferase Translation or Activity in H4 […] Cells. [Related pubchem assays: 1829 (Project Summary), 1814 (Primary HTS)]; format: functional
[3] = cells; format: functional
[4] = Luminescence Cell-Based Dose Confirmation HTS to Identify Activators of 5'UTR Stem-Loop Driven Alpha-Synuclein mRNA Translation in H4 Neuroglioblastoma Cells. [Related pubchem assays: 1829 (Project Summary), 1814 (Primary HTS)]; format: functional
[5] = biological target: T1, High affinity choline transporter 1 (Homo sapiens, UniProt Q9GZV3); test: human choline transporter blockers, potency – cell-based, 5-point CRC, membrane potential dye, dose response (AID 504840); format: functional
T1 sequence (Q9GZV3 whole entry): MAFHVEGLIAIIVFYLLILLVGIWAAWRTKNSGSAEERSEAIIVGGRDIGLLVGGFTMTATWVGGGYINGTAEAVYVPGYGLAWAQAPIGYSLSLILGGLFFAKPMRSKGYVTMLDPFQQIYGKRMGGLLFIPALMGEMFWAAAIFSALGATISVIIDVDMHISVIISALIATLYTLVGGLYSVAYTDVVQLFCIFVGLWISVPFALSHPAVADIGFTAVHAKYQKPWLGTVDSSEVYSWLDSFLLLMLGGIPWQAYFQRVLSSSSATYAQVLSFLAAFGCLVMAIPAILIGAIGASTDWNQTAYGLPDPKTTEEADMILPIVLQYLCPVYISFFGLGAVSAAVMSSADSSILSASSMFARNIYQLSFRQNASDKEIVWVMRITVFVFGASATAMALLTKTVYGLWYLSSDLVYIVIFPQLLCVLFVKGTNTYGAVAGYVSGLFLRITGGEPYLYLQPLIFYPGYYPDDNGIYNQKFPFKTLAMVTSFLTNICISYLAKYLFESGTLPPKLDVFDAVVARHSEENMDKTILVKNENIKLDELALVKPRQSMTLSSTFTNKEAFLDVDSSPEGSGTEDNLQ

[6] = test system: HEK293; test: EBV LMP1 TES2 canonical NF-kB signalling blockers – cell-based, HEK293, luciferase, cherry-pick, dose response (AID 588343); format: functional; details: Homo sapiens
[7] = biological target: Dual specificity protein kinase CLK1 (Homo sapiens, UniProt P49759); test: inhibition of human CLK1 activity – biochemical, cherry-picked samples, selectivity assay for Dyrk1A inhibitor project, dose response (AID 588811)
[8] = test system: Vero; test: cells; format: functional; details: Chlorocebus sabaeus
[9] = biological target: Delta-type opioid receptor (Homo sapiens, UniProt P41143); test: Counterscreen for agonists of heterodimerization of the mu 1 (OPRM1) and delta 1 (OPRD1) opioid receptors: Luminescence-based cell-based high throughput dose response assay to identify agonists of OPRD1 homodimerization. [Related pubchem assays (depositor defined):AID504326, AID504355, AID504692, AID504904, AID504905]; format: functional
[10] = biological target: T2, Short transient receptor potential channel 4 (Mus musculus, UniProt Q9QUQ5); test: calcium entry via TRPC4 opening agents – cell-based, HEK293 TRPC4/mu-opioid, Fluo-4 calcium, dose response (AID 434937); format: functional
T2 sequence (Q9QUQ5 whole entry): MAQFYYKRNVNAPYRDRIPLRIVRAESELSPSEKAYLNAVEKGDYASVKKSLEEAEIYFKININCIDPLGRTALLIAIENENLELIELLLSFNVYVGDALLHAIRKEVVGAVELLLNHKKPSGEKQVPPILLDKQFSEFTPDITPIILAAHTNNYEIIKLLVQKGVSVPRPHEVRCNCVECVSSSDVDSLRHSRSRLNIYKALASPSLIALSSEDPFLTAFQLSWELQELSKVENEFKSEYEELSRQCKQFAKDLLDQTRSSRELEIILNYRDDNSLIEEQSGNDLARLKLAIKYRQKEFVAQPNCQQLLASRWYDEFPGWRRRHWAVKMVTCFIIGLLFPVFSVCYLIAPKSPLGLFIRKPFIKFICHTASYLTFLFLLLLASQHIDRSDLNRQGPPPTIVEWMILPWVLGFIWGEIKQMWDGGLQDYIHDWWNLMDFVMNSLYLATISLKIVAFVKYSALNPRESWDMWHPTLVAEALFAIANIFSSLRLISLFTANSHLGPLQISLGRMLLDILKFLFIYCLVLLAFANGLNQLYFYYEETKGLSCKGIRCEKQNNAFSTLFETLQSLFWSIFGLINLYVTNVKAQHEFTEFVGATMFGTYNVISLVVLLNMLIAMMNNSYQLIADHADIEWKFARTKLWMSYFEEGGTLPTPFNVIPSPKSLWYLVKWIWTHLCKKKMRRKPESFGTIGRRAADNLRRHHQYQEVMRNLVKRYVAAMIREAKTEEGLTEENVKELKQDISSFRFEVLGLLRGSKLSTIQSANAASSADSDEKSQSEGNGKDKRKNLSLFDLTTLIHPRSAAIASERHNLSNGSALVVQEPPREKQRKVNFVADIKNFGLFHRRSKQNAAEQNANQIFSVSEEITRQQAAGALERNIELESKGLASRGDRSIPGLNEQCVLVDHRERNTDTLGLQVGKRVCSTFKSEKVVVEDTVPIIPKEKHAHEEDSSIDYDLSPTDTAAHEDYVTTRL

[11] = biological target: Mu-type opioid receptor (Homo sapiens, UniProt P35372); test: Counterscreen for agonists of heterodimerization of the mu 1 (OPRM1) and delta 1 (OPRD1) opioid receptors: Luminescence-based cell-based high throughput dose response assay to identify agonists of OPRM1 homodimerization.; format: functional;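 note: U2OS cells expressing OPRM1 and beta-arrestin as split beta-galactosidase partners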
[12] = biological target: 5-hydroxytryptamine receptor 5A (Homo sapiens, UniProt P47898); test: Counterscreen for agonists of OPRM1-OPRD1 heterodimerization: luminescence-based cell-based high throughput dose response assay to identify agonists of 5-hydroxytryptamine (serotonin) 5A receptor (HTR5A). [Related pubchem assays (depositor defined):AID504326, AID504355, AID504692, AID504904, AID504905]; format: functional
5-hydroxytryptamine receptor 5A, sequence (P47898 whole entry): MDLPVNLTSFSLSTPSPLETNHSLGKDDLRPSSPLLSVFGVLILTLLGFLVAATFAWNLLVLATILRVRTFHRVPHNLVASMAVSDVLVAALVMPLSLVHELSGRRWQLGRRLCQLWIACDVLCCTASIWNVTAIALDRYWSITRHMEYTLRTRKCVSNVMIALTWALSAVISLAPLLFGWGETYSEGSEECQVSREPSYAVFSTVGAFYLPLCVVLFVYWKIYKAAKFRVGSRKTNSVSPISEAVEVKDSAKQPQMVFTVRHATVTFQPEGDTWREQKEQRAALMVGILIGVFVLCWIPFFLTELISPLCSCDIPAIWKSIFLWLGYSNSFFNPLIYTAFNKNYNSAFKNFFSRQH

Dual specificity protein kinase CLK1, sequence (P49759 whole entry): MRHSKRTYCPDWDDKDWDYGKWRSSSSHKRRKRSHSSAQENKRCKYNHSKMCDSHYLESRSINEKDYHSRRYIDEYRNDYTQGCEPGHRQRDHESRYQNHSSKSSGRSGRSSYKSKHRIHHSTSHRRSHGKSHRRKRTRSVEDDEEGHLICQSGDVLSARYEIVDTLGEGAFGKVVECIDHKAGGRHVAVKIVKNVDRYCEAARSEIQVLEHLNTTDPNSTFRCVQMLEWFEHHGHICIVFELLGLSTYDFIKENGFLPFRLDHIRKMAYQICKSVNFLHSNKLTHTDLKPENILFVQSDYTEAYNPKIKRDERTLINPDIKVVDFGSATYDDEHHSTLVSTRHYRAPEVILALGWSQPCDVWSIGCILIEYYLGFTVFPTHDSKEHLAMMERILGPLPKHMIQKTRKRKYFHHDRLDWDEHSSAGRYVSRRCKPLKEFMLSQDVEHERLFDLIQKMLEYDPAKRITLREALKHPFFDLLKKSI
Mu-type opioid receptor, sequence (P35372 whole entry): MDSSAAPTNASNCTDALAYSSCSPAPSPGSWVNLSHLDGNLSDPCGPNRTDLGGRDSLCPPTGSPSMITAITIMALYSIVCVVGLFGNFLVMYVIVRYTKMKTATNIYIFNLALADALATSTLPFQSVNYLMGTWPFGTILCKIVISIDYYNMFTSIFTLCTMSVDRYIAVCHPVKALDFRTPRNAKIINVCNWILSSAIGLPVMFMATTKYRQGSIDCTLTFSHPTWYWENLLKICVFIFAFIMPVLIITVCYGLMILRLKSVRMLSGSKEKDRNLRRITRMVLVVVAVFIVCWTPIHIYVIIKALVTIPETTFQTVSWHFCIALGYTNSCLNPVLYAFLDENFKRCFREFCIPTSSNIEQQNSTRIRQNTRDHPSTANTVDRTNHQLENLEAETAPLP
Delta-type opioid receptor, sequence (P41143 whole entry): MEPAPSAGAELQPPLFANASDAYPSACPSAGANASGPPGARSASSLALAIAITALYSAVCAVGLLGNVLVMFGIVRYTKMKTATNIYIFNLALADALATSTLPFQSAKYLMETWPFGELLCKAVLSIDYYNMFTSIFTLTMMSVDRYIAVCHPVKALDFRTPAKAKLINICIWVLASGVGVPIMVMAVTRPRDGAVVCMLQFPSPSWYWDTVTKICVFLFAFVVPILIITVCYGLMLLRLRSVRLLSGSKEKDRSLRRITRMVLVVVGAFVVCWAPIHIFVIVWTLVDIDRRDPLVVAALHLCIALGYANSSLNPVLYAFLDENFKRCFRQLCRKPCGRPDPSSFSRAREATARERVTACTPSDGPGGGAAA

O=C(Nc1ccccc1Oc1ccccc1)c1ccc(Br)o1
AC50 [1]: > 380 µM (inactive)

CCc1cc2c(=O)n(C(C)C(=O)OC3CCCCC3)cnc2s1 (centres undefined)
AC50 [1]: 54.4 µM (active)
EC50 [2]: 67.6 µM (active)
IC50 [3]: 17.9 µM (active)
EC50 [4]: 105 µM (active)

Fc1ccc(N=C(S)Nc2ccc(F)c(Cl)c2)cc1Cl
IC50 [5]: 7.94 µM (active)

c1csc(CNc2ncnc3ccc(-c4ccoc4)cc23)c1
AC50 [6]: 19 µM (active)
AC50 [7]: 0.00979 µM (active)

Cc1noc(CN(C)c2ncnc3ccc(-c4ccc5c(c4)OCO5)cc23)n1
AC50 [7]: < 0.00195 µM (active)

N=c1n(CC(=O)c2cccc([N+](=O)[O-])c2)c2ccccc2n1Cc1ccccc1
CC50 [8]: 11.2 µM (active)

COc1ccc(C(CNC(=O)/C=C/c2c(Cl)nc3ccccn23)N(C)C)cc1 (centres undefined)
EC50 [9]: > 92.5 µM (inactive)
EC50 [10]: 0.473 µM (active)
EC50 [11]: > 92.5 µM (inactive)
EC50 [12]: > 92.5 µM (inactive)

From ChEMBL document CHEMBL1201862, “PubChem BioAssay data set” (2004)
